Source: article PMC10281804, “The structural basis of the talin–KANK1 interaction that coordinates the actin and microtubule cytoskeletons at focal adhesions” (Open Biology, 2023)

Tests used:
[1] = tested on: KANK1 localization to focal adhesions of NIH3T3 fibroblasts; test: KANK1 localization in vin880-expressing cells treated with ROCK inhibitor; type: cell-based, mouse
Description: NIH3T3 mouse fibroblasts and HEK293T human epithelial cells were obtained from the American Type Culture Collection (ATCC). The vinculin null and WT mouse embryonic fibroblasts (MEFs) originate from the Eileen Adamson laboratory. All cells were maintained in Dulbecco's Modified Eagle Medium (DMEM; Sigma) supplemented with 10% fetal bovine serum (FBS, Gibco), 1% L-glutamine (Sigma) and 1% non-essential amino acids (Sigma). Talin1&2 null cells were cultured in DMEM F-12 (Gibco) supplemented with 10% FBS, 1% L-glutamine, 1% non-essential amino acids and […] HEPES (Sigma). All cells were cultured at 37̊C supplied with 5% CO2 and 95% humidity. Transient transfections were performed using Lipofectamine LTX with Plus Reagent (Invitrogen) to NIH3T3 cells, Lipofectamine 2000 (Invitrogen) to talin null cells, and jetPRIME reagent (Polyplus) to MEFs and HEK293T cells, as per the manufacturer's instructions.
For fixed cell imaging, cells were cultured in glass-bottom dishes (IBL) coated with bovine fibronectin (Sigma) at a final concentration of 10 µg ml^−1. […]
(§1) Images of fixed samples in PBS were acquired at room temperature using an Olympus IX83 inverted microscope equipped with a 60×/1.42 PlanApo N oil objective and a QImaging Retiga R6 CCD camera, controlled by Metamorph software. Samples were illuminated using LEDs (UV/Cyan/Green-Yellow/Red, Lumencor) for fluorescence excitation; a Sedat filter set (DAPI/FITC/TRITC/Cy5, Chroma, 89000) was used.
FIJI-ImageJ [33] software was used to process all images. Cell-matrix adhesion size was quantified as described previously, by subtracting background signal using a rolling ball algorithm, followed by thresholding to select adhesion structures and the Analyze Particles function to quantify adhesions. […] Pearson's correlation coefficient of fluorescence signals (40 × 40 µm^2 square adhesion area) was measured by subtracting the background signal, followed by automatic thresholding and colocalization analysis using the Bioimaging and Optics Platform (BIOP) version JACoP plugin [34]. […]

mCherry–KANK1 = test: MTS colocalization of truncated or mutated talin constructs with KANK1; type: cell-based, human; settings: MTS colocalization assay, cBAK-tagged talin constructs
Text: To examine the effect of these KANK1 mutations on talin interactions in cells, we next used a mitochondrial targeting system (MTS) which we previously used to screen for defined protein–protein interactions. In this assay, one protein is fused to a small peptide sequence from the pro-apoptotic protein BAK (cBAK) which leads to its insertion into the outer membrane of mitochondria. Proteins that interact with the cBAK-tagged protein will get recruited to mitochondria, and this recruitment can be verified either by visualizing colocalization using fluorescence microscopy (figure 4a) or by purification of mitochondria followed by detection of co-precipitates using biochemistry (figure 4b,c). […] To confirm that the interaction was meditated by the R7 domain, we performed the colocalization assays with truncated talin constructs. […]
as §1

| Compound | KANK1 localization (in words) ([1]; NIH3T3 cells expressing vin880 treated with Y-27632) | Pearson's mean correlation coefficient of KANK1/paxillin overlap ([1]; NIH3T3 with GFP–vin880 and mCherry–KANK1, Y-27632 50 µM, 60 min, 20 images (40 × 40 µm^2) per group, ± s.d., water control r = 0.59 ± 0.05, p < 0.001 (Welch's t-test)) | Percentage of belt-positive FAs ([1]; NIH3T3 with GFP–vin880 and mCherry–KANK1, Y-27632 50 µM, 60 min, FAs over 0.3 µm^2, n = 17, ± s.d., water control 17.90 ± 3.27% (n = 28), p < 0.001 (Welch's t-test)) [%] | colocalization of talin construct with KANK1 (mCherry–KANK1) |
| --- | --- | --- | --- | --- |
| C[C@@H](N)[C@H]1CC[C@H](C(=O)Nc2ccncc2)CC1 [Y-27632] | KANK1 colocalized with paxillin in FAs throughout the whole FA structure | 0.82 ± 0.04 | 0.02 ± 0.10 |  |
| GFP–talin1G1404L–cBAK: GFP–talin1–cBAK with the R7 G1404L mutation |  |  |  | prevented colocalization |
